# Assay results as given in patent US11952387B2, “Bicyclic heteroaromatic ring derivative” (priority 2018, dated 2024).
# System: HRV14
# Assay: Inhibitory activity against human rhinovirus infection and replication (quantitative real-time PCR)
# Type: cell-based
# Conditions: Human rhinovirus sp., MRC5; 100 nmol/L test compound; MRC-5 cells infected with HRV14 at MOI=0.2; 48 hours; viral load normalized to 18s rRNA; read-out: Percent Inhibition
# Method: Evaluation of inhibitory activity against human rhinovirus infection and replication (by quantitative real-time PCR)
# A required amount of a test compound was weighed off and dissolved in dimethyl sulfoxide (DMSO) to yield a 10 mmol/L stock solution. Next, the stock solution was diluted with a medium for viral infection (minimum essential medium (MEM) supplemented with 2% fetal bovine serum, 5% Tryptose phosphate broth, and 30 mmol/L MgCl2) to prepare 100 nmol/L and 1000 nmol/L of test compound solutions. MRC-5 (human fetal lung fibroblast: ATCC) was suspended at a density of 30000 cells/mL in cell culture medium (MEM supplemented with 10% fetal bovine serum), and 625 μL of the suspension per well was seeded into a 24-well cell culture plate and cultured at 37° C. in 5% CO2. After 72 hours, it was confirmed that the plate had become 80% confluent. The plate was washed with 625 μL of phosphate-buffered physiological saline (Ca/Mg-free; PBS-) once, and 625 μL of the test compound solution prepared just before use was immediately added to the plate. After 30 minutes, the medium was removed followed by addition of 187.5 μL of the test compound solution that had been prepared such that the cells were infected with HRV14 (ATCC) at multiplicity of infection (MOI)=0.2. The cells were then cultured at 35° C. in 5% CO2. After additional 2 hours, 625 μL of the test compound solution prepared just before use was added, and the cells were cultured at 35° C. in 5% CO2. After 48 hours, the cells were washed with 625 μL of PBS- once, and total RNA was extracted from the cells using RNeasy (R) plus kit (Qiagen) according to the manufacturer's instruction. Subsequently, cDNA was synthesized using High-Capacity cDNA Reverse Transcription Kit (Thermo Fisher Scientific). Finally, quantitative real-time PCR was performed in 7500 Fast Real-time PCR system (Life technologies) to measure HRV14 and 18s rRNA. The measurement protocol consisted of the initial denaturation phase at 95° C. for 20 seconds followed by 40 cycles of the denaturation step at 95° C. for 3 seconds and the annealing/elongation step at 60° C. for 30 seconds. The primers used were HRV14 forward primer set forth in SEQ ID NO: 1 and HRV14 reverse primer set forth in SEQ ID NO: 2, and the probe is set forth in SEQ ID NO: 3.
# 18s rRNA was measured using Eukaryotic 18S rRNA Endogenous Control (Applied Biosystems). According to Equation 1, 18s ribosomal RNA was used as an internal standard to normalize the viral load of HRV14: Viral load of HRV14=The amount of HRV14 in virus-infected cells/the amount of 18s rRNA in virus-infected cells Equation 1
# Inhibitory activity of test compounds was calculated as a percent inhibition (%) according to Equation 2: Percent inhibition (%)=[the viral load of HRV in virus-infected cells in the absence of the test compound −the viral load of HRV in virus-infected cells in the presence of the test compound]/[the viral load of HRV in virus-infected cells in the absence of the test compound]×100 Equation 2
# The results of using 100 nmol/L test compound solutions were shown in the tables below according to Examples. In the tables, percent inhibition was expressed as follows: percent inhibition >80%: +++, 80%≥percent inhibition >50%: ++, and 50%≥percent inhibition:+.
row,Compound,inhibition at 0.1 µM [%]
1,COc1ccc(-c2c(C)nc3sc(C(C)(C)O)nn23)cc1S(=O)(=O)N[C@H]1CC[C@H](O)CC1 [Example 1-1],50 to 80
2,Cc1nc2sc(C(C)(C)O)cn2c1-c1ccc(Cl)c(S(=O)(=O)N[C@H]2CC[C@@H](O)CC2)c1 [Example 1-2],≤ 50
3,Cc1nc2sc(C(C)(C)O)cn2c1-c1ccc(OC(F)(F)F)c(S(=O)(=O)N[C@H]2CC[C@@H](O)CC2)c1 [Example 1-3],≤ 50
4,Cc1nc2sc(C(C)(C)C)cn2c1-c1ccc(Cl)c(S(=O)(=O)N[C@H]2CC[C@@H](O)CC2)c1 [Example 1-4],> 80
5,Cc1nc2sc(C3CC3)cn2c1-c1ccc(Cl)c(S(=O)(=O)N[C@H]2CC[C@@H](O)CC2)c1 [Example 1-5],50 to 80
6,COc1ccc(-c2c(C)nc3sc(C(C)C)nn23)cc1S(=O)(=O)N[C@H]1CC[C@@H](O)CC1 [Example 1-6],> 80
7,Cc1nc2sc(C(C)(C)O)nn2c1-c1ccc(Cl)c(S(=O)(=O)N[C@H]2CC[C@@H](O)CC2)c1 [Example 1-7],> 80
8,Cc1nc2sc(C(C)(C)OC3COC3)cn2c1-c1ccc(Cl)c(S(=O)(=O)N[C@H]2CC[C@@H](O)CC2)c1 [Example 1-8],50 to 80
9,Cc1nc2sc(C(C)C)nn2c1-c1ccc(Cl)c(S(=O)(=O)N[C@H]2CC[C@@H](O)CC2)c1 [Example 1-9],> 80
10,Cc1nc2sc(C(C)(C)C)cn2c1-c1ccc(C#N)c(S(=O)(=O)N[C@H]2CC[C@@H](O)CC2)c1 [Example 1-10],> 80
11,Cc1nc2sc(C(O)(C(F)(F)F)C(F)(F)F)cn2c1-c1ccc(Cl)c(S(=O)(=O)N[C@H]2CC[C@@H](O)CC2)c1 [Example 1-11],≤ 50
12,COc1ccc(-c2c(C)nc3sc(C(OC)(C(F)(F)F)C(F)(F)F)cn23)cc1S(=O)(=O)N[C@H]1CC[C@@H](O)CC1 [Example 1-12],> 80
13,COc1ncc(-c2c(C)nc3sc(C(C)(C)C)cn23)cc1S(=O)(=O)N[C@H]1CC[C@@H](O)CC1 [Example 1-13],> 80
14,COc1ccc(-c2c(C)nc3sc(C(C)(C)O)nn23)cc1S(=O)(=O)N[C@H]1CC[C@@H](O)CC1 [Example 1-14],50 to 80
15,COc1ncc(-c2c(C)nc3sc(C4CC4)nn23)cc1S(=O)(=O)N[C@H]1CC[C@@H](O)CC1 [Example 1-16],50 to 80
16,Cc1nc2sc(C(C)(C)O)nn2c1-c1ccc(OC(F)(F)F)c(S(=O)(=O)N[C@H]2CC[C@@H](O)CC2)c1 [Example 1-17],> 80
17,COc1ncc(-c2c(C)nc3sc(C(C)(C)C#N)nn23)cc1S(=O)(=O)N[C@H]1CC[C@@H](O)CC1 [Example 1-18],50 to 80
18,Cc1nc2sc(C(C)(C)O)cn2c1-c1ccc(C(F)(F)F)c(S(=O)(=O)N[C@H]2CC[C@@H](O)CC2)c1 [Example 1-19],> 80
19,COc1ccc(-c2c(C)nc3sc(C(C)(C)C#N)nn23)cc1S(=O)(=O)N[C@H]1CC[C@@H](O)CC1 [Example 1-20],> 80
20,COc1ncc(-c2c(C)nc3sc(C(C)(C)O)nn23)cc1S(=O)(=O)N[C@H]1CC[C@@H](O)CC1 [Example 1-21],≤ 50
21,CCOC(=O)C(C)(C)c1nn2c(-c3ccc(OC)c(S(=O)(=O)N[C@H]4CC[C@@H](O)CC4)c3)c(C)nc2s1 [Example 1-22],> 80
22,COC(=O)C(C)(C)c1nn2c(-c3cnc(OC)c(S(=O)(=O)N[C@H]4CC[C@@H](O)CC4)c3)c(C)nc2s1 [Example 1-23],> 80
23,COc1ncc(-c2c(C)nc3sc(C(C)(C)O)nn23)cc1S(=O)(=O)N[C@H]1CC[C@H](O)CC1 [Example 1-24],≤ 50
24,Cc1nc2sc(C(C)(C)O)nn2c1-c1ccc(C(F)(F)F)c(S(=O)(=O)N[C@H]2CC[C@H](O)CC2)c1 [Example 1-25],> 80
25,Cc1nc2sc(C(C)(C)O)nn2c1-c1ccc(C(F)(F)F)c(S(=O)(=O)N[C@H]2CC[C@@H](O)CC2)c1 [Example 1-26],> 80
26,COc1ccc(-c2c(C)nc3sc(C(C)(C)O)cn23)cc1S(=O)(=O)C[C@H]1CC[C@@H](O)CC1 [Example 1-27],≤ 50

row,Compound,inhibition at 0.1 µM [%]
1,COc1ccc(-c2c(C)nc3sc(C(C)(C)OC)nn23)cc1S(=O)(=O)N[C@H]1CC[C@H](O)CC1 [Example 1-28],> 80
2,COC(C)(C)c1nn2c(-c3ccc(C(F)(F)F)c(S(=O)(=O)N[C@H]4CC[C@H](O)CC4)c3)c(C)nc2s1 [Example 1-29],> 80
3,Cc1nc2sc(C3CC3)nn2c1-c1ccc(C(F)(F)F)c(S(=O)(=O)N[C@H]2CC[C@H](O)CC2)c1 [Example 1-30],> 80
4,COc1ccc(-c2c(C)nc3sc(C4(C(F)(F)F)CC4)nn23)cc1S(=O)(=O)N[C@H]1CC[C@@H](O)CC1 [Example 1-31],> 80
5,Cc1nc2sc(C(C)(C)C)nn2c1-c1ccc(C(F)(F)F)c(S(=O)(=O)N[C@H]2CC[C@H](O)CC2)c1 [Example 1-32],> 80
6,Cc1nc2sc(C(C)(C)O)nn2c1-c1ccc(C(F)(F)F)c(S(=O)(=O)NC(C)(C)CO)c1 [Example 1-33],> 80
7,COc1ccc(-c2c(C)nc3sc(C(C)(C)O)nn23)cc1S(=O)(=O)C[C@H]1CC[C@@H](O)CC1 [Example 1-34],50 to 80
8,COc1ccc(-c2c(C)nc3sc(C4CC4)nn23)cc1S(=O)(=O)NC(C)(C)CO [Example 1-35],> 80
9,COc1ccc(-c2c(C)nc3sc(C(C)(C)O)nn23)cc1S(=O)(=O)NC(C)(C)CO [Example 1-36],50 to 80
10,COc1ccc(-c2c(C)nc3sc(C(C)(C)O)nn23)cc1S(=O)(=O)C1CC1 [Example 1-37],50 to 80
11,COc1ccc(-c2c(C)nc3sc(C(C)(C)O)nn23)cc1S(=O)(=O)CC(C)(C)O [Example 1-38],> 80
12,COc1ccc(-c2c(C)nc3sc(C4(C#N)CC4)nn23)cc1S(=O)(=O)NC(C)(C)CO [Example 1-39],≤ 50
13,COc1ccc(-c2c(C)nc3sc(C4(C#N)CC4)nn23)cc1S(=O)(=O)C1CC1 [Example 1-40],≤ 50
14,COC(=O)C(C)(C)S(=O)(=O)c1cc(-c2c(C)nc3sc(C(C)(C)O)nn23)ccc1OC [Example 1-41],50 to 80
15,COc1ccc(-c2c(C)nc3sc(C(C)(C)O)cn23)cc1S(=O)(=O)CC(C)(C)O [Example 1-42],≤ 50
16,COc1ccc(-c2c(C)nc3sc(C(C)(C)OC)cn23)cc1S(=O)(=O)N[C@H]1CC[C@@H](O)CC1 [Example 1-43],> 80
17,COc1ccc(-c2c(C)nc3sc(C4(O)CCCC4)cn23)cc1S(=O)(=O)N[C@H]1CC[C@@H](O)CC1 [Example 1-44],≤ 50
18,COc1ccc(-c2c(C)nc3sc(C4(OC)CCCC4)cn23)cc1S(=O)(=O)N[C@H]1CC[C@@H](O)CC1 [Example 1-45],> 80
19,COc1ccc(-c2c(C)nc3sc(C(C)C)cn23)cc1S(=O)(=O)N[C@H]1CC[C@@H](O)CC1 [Example 1-46],> 80
20,COc1ccc(-c2c(C)nc3sc(C4(OC)CC4)cn23)cc1S(=O)(=O)N[C@H]1CC[C@@H](O)CC1 [Example 1-47],50 to 80
21,COc1ccc(-c2c(C)nc3sc(C4CC4)cn23)cc1S(=O)(=O)N[C@H]1CC[C@@H](O)CC1 [Example 1-48],50 to 80
22,COc1ccc(-c2c(C)nc3sc(C(C)(C)C)cn23)cc1S(=O)(=O)N[C@H]1CC[C@@H](O)CC1 [Example 1-49],> 80
23,COc1ccc(-c2c(C)nc3sc(C(C)(C)OC)cn23)cc1S(=O)(=O)Nc1ccc(F)cc1 [Example 1-50],> 80
24,COc1ccc(-c2c(C)nc3sc(C)cn23)cc1S(=O)(=O)Nc1ccc(F)cc1 [Example 1-51],50 to 80
25,COc1ccc(-c2c(C)nc3sccn23)cc1S(=O)(=O)Nc1ccc(F)cc1 [Example 1-52],≤ 50
26,COc1ccc(-c2c(C)nc3sc(C(O)(C4CC4)C4CC4)nn23)cc1S(=O)(=O)CC(C)(C)O [Example 1-53],> 80
